According to patent US12241087B2, “Compositions and methods for differentiating stem cells into NK cells” (CRISPR THERAPEUTICS AG, priority 2020, dated 2025):

Legend:
iPSC [1] = assay: Effect of CHIR-99021 concentration in NK-MED-005c medium on iNK induction; format: cell-based, human; conditions: 2.5, 3.5 or 4.5 μM, differentiation day 20, AP2.0
Protocol: To determine the optimal concentration of CHIR-99021, different concentrations (2.5 μM, 3.5 μM or 4.5 μM) were added to the NK-MED-005c medium (Table 30) to test their effect on iNK induction. Differentiation proceeded according to Protocol 2 (AP2.0) as described in Example 11. Cells were collected and analyzed using flow cytometry to detect CD45^+CD56^+ cells at differentiation day 20.

iPSC [2] = assay: CD45/CD56 expression on day 28 after early modulation of WNT signaling; format: cell-based, human
Protocol: For iPSC-HSPC differentiation optimization, CD45/CD56 expression on day 28 was measured (FIG. 10). The HSPC cells on day 6 were further differentiated to iNK in the StemPro-34—based differentiation media Table 12) in the presence of IL7, IL15, SCF. Flt3L, (IL3 was added for days 6-14 only). […] However, it was not an optimal condition as the single cells production and expansion was lower than in conditions in the presence of Activin A molecule (data not shown). Due to low CD56^+ cells formation on day 28, the HSPC to iNK differentiation conditions was optimized.

iPSC [3] = assay: Effect of WNT-C59 in NK-MED-006 medium on iNK induction; format: cell-based, human; conditions: 2 μM, day 20 cultures, AP2.0
Protocol: The effect of including WNT-C59 (2 μM) in NK-MED-006 medium during iNK induction using the AP2.0 protocol was examined. […] The addition of WNT-C59 increased proportion of cells expressing non-NK lineage markers.

HSPC [4] = assay: Design of Experiment (DoE) I, day 6 to day 20; format: cell-based, human; conditions: differentiation and number of cells at day 20
Protocol: This Example reports the identification of optimized concentrations for certain components in the base media. A design of Experiment (DoE) study was performed to determine the concentrations of zinc sulfate, β-mercaptoethanol, human serum, and glucose that would provide the most differentiation and increased number of cells at differentiation day 20. These factors were selected based on known chemical/biological effects of them in affect general cell proliferation and differentiation. Potential positive/negative involvement of β-mercaptoethanol, zinc ion, human serum, and glucose in NIK cell or lymphocyte cell proliferation, killer cell receptor function, and cytotoxicity have been previously reported. There were no known studies conducted on testing optimal range of these factors in NK cell induction from HSPC.

HSPC [5] = assay: Stage II basal media testing (HSPC to iNK), day 21 single cells; format: cell-based, human; conditions: in StemPro-based media
Protocol: This Example investigates the use of various alternative base media that can be used for Stage II differentiation. […] The HSPC to iNK differentiation from day 6 further on was done in StemPro-34—based media (Table 12). […] In this Example, the […] until day 6 as described in Example 2 (i.e., steps 1-5). Each media was supplemented with 20 ng/mL IL7, 20 ng/mL IL15, 20 ng/mL SCF, 20 ng/mL Flt3L and 5 ng/mL of IL-3 for days 6-14 and 20 ng/mL IL7, 20 ng/mL IL15, 20 ng/mL SCF, 20 ng/mL Flt3L for days 14-21 of differentiation.
Day 21 single cells were profiled for CD45^+/CD56^+, CD56^+/NKG2D^+, CD56^+/CD94^+, and CD56^+/CD16^+ expression (FIG. 12). […] The DMEM/F12 2:1 basal media was chosen due to its price and higher availability for scale up production.

HSPC [6] = assay: Effect of β-mercaptoethanol on differentiation, CD45 and CD56 expression; format: cell-based; conditions: 50 μM in DMEM/F12 media with low zinc, low human serum
Protocol: To determine the effects of β-mercaptoethanol on differentiation, CD45+ and CD56+ expression was measured in cells cultured in Stempro34 media, DMEM/F12 media with low zinc, low human serum, and no β-mercaptoethanol (bME), or DMEM/F12 media with low zinc, low human serum, and 50 μM β-mercaptoethanol.

With `Cc1cnc(-c2cnc(NCCNc3ccc(C#N)cn3)nc2-c2ccc(Cl)cc2Cl)[nH]1` [CHIR-99021, 6-[[2-[[4-(2,4-Dichlorophenyl)-5-(5-methyl-1H-imidazol-2-yl)-2-pyrimidinyl]amino]ethyl]amino]-3-pyridinecarbonitrile] the “proportion of CD45+CD56+ cells” value (iPSC [1]) was “highest proportion of CD45^+CD56^+ cells were collected using a moderate amount”, the “CD56+ percentage” value (iPSC [2]; day 28, condition #5, StemPro-34 based media) was “highest” and the “single cells production and expansion” value (iPSC [2]; versus conditions with Activin A, data not shown) was “lower”.
`Cc1cc(-c2ccc(CC(=O)Nc3ccc(-c4cccnc4)cc3)cc2)ccn1` [WNT-C59] was tested, and the “proportion of cells expressing non-NK lineage markers” value (iPSC [3]) was “increased” and the “proportion of iNK that expressed the myeloid progenitor marker CD33” value (iPSC [3]) was “altered”.
For `O=S(=O)([O-])[O-].[Zn+2]` [Zinc sulfate], the “direction of effect in DoE I” value (HSPC [4]) was “positive effect”.
In the case of `OCCS` [β-mercaptoethanol], the iNK differentiation (HSPC [5]) is reported as “prevented iNK differentiation”, the “direction of effect in DoE I” value (HSPC [4]) is reported as “negative effect” and the “effect on iNK cell induction” value (HSPC [6]) is reported as “negative effect”.
